From patent publication US20250333418A1, “PURINE COMPOUNDS, COMPOSITIONS COMPRISING THEM AND USES THEREOF” (Novo Nordisk A/S, priority 2022, published 2025)

Assays:
[1] = target: T1, human CB1 receptor (Homo sapiens, UniProt P21554); test: bioSensAll GAPL-Gi2 BRET biosensor assay in HEK293 cells transfected with hCB1; test compound added before EC75-80 of agonist CP55,940 (0.1 nM); type: cell-based; conditions: vs CP55,940 0.1 nM (EC75-80), read-out: CB1 wt Gi2 IC50
T1 construct: expressed in transfected cells; host or cells: HEK293
T1 sequence (P21554 whole entry): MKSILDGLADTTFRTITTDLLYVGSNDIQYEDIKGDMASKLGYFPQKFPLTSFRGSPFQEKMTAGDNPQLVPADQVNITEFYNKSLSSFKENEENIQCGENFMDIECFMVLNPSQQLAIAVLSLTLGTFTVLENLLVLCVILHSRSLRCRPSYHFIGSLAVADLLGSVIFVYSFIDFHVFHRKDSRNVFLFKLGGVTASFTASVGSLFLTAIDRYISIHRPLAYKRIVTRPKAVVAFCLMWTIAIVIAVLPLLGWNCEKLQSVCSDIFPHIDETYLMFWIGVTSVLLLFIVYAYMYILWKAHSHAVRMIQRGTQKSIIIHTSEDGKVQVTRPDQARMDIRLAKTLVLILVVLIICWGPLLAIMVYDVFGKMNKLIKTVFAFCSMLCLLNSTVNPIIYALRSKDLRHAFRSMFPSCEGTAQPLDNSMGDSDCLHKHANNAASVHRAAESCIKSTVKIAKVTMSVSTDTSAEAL
Outline: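 Test compounds at 12 doses up to 600 nM preceded a 0.1 nM CP55,940 challenge in hCB1/GAPL-Gi2 HEK293 cells. After overnight 37° C incubation, methoxy e-coelenterazine (2 µM final) was added and the 515/400 nm BRET ratio normalized to positive and negative controls.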

[2] = target: T1, human CB1 receptor; test: bioSensAll β-arrestin2 plasma membrane translocation (+GRK2) BRET biosensor assay in HEK293 cells transfected with hCB1; test compound added before EC75-80 of agonist CP55,940 (100 nM); type: cell-based; conditions: βArrestin2 (+GRK2) BRET biosensor, vs CP55,940 100 nM (EC75-80), read-out: CB1 wt βarr2 IC50
Outline: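 HEK293 cells co-transfected with hCB1 and β-arrestin2 PM-translocation BRET biosensor (+GRK2); 48 h post-transfection in HBSS, test compound (0–600 nM, 12 points) added 3–5 min before CP55,940 at 100 nM (EC75-80). Overnight incubation at 37 °C; BRET (515/400 nm) read after 2 µM e-coelenterazine Prolume Purple, standardized to controls.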

`CC(C)(O)COc1nc(N2CCC(C(N)=O)CC2)c2nc(-c3ccccc3Cl)n(-c3ccc(Cl)cc3)c2n1` [Compound 198] gave an IC50 [1] of 7.69 nM and an IC50 [2] of 31.5 nM.

`CC(C)(O)COc1nc(N2CCC(C)(O)CC2)c2nc(-c3ccccc3Cl)n(-c3ccc(Cl)cc3)c2n1` [Compound 199] was tested, and the IC50 [1] was 0.732 nM and the IC50 [2] was 3.27 nM.

Compound `CN(CCO)c1nc(N(C)CCO)c2nc(-c3ccccc3Cl)n(-c3ccc(Cl)cc3)c2n1` [Compound 200] has an IC50 [1] of 1.72 nM and an IC50 [2] of 25.2 nM.

`CC(C)(O)COc1nc(N2C[C@H]3C[C@@H]2CO3)c2nc(-c3ccccc3Cl)n(-c3ccc(Cl)cc3)c2n1` [Compound 203] gave an IC50 [1] of 1.39 nM and an IC50 [2] of 6.49 nM.

Work on `CC(C)(O)COc1nc(N2C[C@@H]3C[C@H]2CO3)c2nc(-c3ccccc3Cl)n(-c3ccc(Cl)cc3)c2n1` [Compound 204] yielded an IC50 [1] of 3.96 nM and an IC50 [2] of 16.6 nM.

`CC(C)Oc1nc(OC(C)C)c2nc(-c3ccccc3Cl)n(-c3ccc(Cl)cc3)c2n1` [Compound 205] was tested, and the IC50 [1] was 6.04 nM and the IC50 [2] was 54.6 nM.

In the case of `C[C@@H]1CN(c2nc(OCC(C)(C)O)nc3c2nc(-c2ccccc2Cl)n3-c2ccc(Cl)cc2)CCO1` [Compound 206], the IC50 [1] is reported as 0.782 nM and the IC50 [2] is reported as 6.99 nM.

`CCOC1(C(N)=O)CCN(c2nc(OCC(C)(C)O)nc3c2nc(-c2ccccc2Cl)n3-c2ccc(Cl)cc2)CC1` [Compound 207] was tested, and the IC50 [1] was 0.652 nM and the IC50 [2] was 2.02 nM.

In the case of `CC(C)(O)COc1nc(N2CCS(=O)(=O)CC2)c2nc(-c3ccccc3Cl)n(-c3ccc(Cl)cc3)c2n1` [Compound 209], the IC50 [1] is reported as 1.34 nM and the IC50 [2] is reported as 14.7 nM.

`C[C@H]1CN(c2nc(OCC(C)(C)O)nc3c2nc(-c2ccccc2Cl)n3-c2ccc(Cl)cc2)CCO1` [Compound 210] gave an IC50 [1] of 1.56 nM and an IC50 [2] of 18.7 nM.

Work on `C[C@H]1COCCN1c1nc(OCC(C)(C)O)nc2c1nc(-c1ccccc1Cl)n2-c1ccc(Cl)cc1` [Compound 211] yielded an IC50 [1] of 0.943 nM and an IC50 [2] of 6.86 nM.

`C[C@@H]1COCCN1c1nc(OCC(C)(C)O)nc2c1nc(-c1ccccc1Cl)n2-c1ccc(Cl)cc1` [Compound 212] showed an IC50 [1] of 2.51 nM and an IC50 [2] of 25.9 nM.

Work on `COC1(C(N)=O)CCN(c2nc(OCC(C)(C)O)nc3c2nc(-c2ccccc2Cl)n3-c2ccc(Cl)cc2)CC1` [Compound 213] yielded an IC50 [1] of 1.85 nM and an IC50 [2] of 7.84 nM.

`CC(C)(O)COc1nc(N2CC3CCC(C2)O3)c2nc(-c3ccccc3Cl)n(-c3ccc(Cl)cc3)c2n1` [Compound 214] showed an IC50 [1] of 1.09 nM and an IC50 [2] of 6.06 nM.

Work on `CC(C)OC1(C(N)=O)CCN(c2nc(OCC(C)(C)O)nc3c2nc(-c2ccccc2Cl)n3-c2ccc(Cl)cc2)CC1` [Compound 215] yielded an IC50 [1] of 0.707 nM and an IC50 [2] of 1.64 nM.

`CC(C)(O)COc1nc(N2CCC(C)(C(=O)O)CC2)c2nc(-c3ccccc3Cl)n(-c3ccc(Cl)cc3)c2n1` [Compound 220] gave an IC50 [1] of 3.47 nM and an IC50 [2] of 23.2 nM.

`CC(C)(O)COc1nc(N2CCNCC(F)(F)C2)c2nc(-c3ccccc3Cl)n(-c3ccc(Cl)cc3)c2n1` [Compound 221] showed an IC50 [1] of 4.04 nM and an IC50 [2] of 30.6 nM.

`CC(=O)N1CCN(c2nc(OCC(C)(C)O)nc3c2nc(-c2ccccc2Cl)n3-c2ccc(Cl)cc2)CC1` [Compound 222] showed an IC50 [1] of 1.56 nM and an IC50 [2] of 7.91 nM.

`CC1(C(N)=O)CCN(c2nc(N3CC[C@@](C)(O)C3)nc3c2nc(-c2ccccc2Cl)n3-c2ccc(Cl)cc2)CC1` [Compound 223] gave an IC50 [1] of 0.916 nM and an IC50 [2] of 2.8 nM.

Compound `COC(=O)N1CCN(c2nc(OCC(C)(C)O)nc3c2nc(-c2ccccc2Cl)n3-c2ccc(Cl)cc2)CC1` [Compound 224] has an IC50 [1] of 1.27 nM and an IC50 [2] of 7.99 nM.

With `CC(=O)NC1(C)CCN(c2nc(OCC(C)(C)O)nc3c2nc(-c2ccccc2Cl)n3-c2ccc(Cl)cc2)CC1` [Compound 226] the IC50 [1] was 0.767 nM and the IC50 [2] was 2.31 nM.

In the case of `CN1CCN(c2nc(OCC(C)(C)O)nc3c2nc(-c2ccccc2Cl)n3-c2ccc(Cl)cc2)CC1` [Compound 227], the IC50 [1] is reported as 4.78 nM and the IC50 [2] is reported as 11.7 nM.

For `CN1C[C@H](F)C[C@H]1COc1nc(N2CCC(C)(C(N)=O)CC2)c2nc(-c3ccccc3Cl)n(-c3ccc(Cl)cc3)c2n1` [Compound 228], the IC50 [1] was 1.2 nM and the IC50 [2] was 2.29 nM.

`CN1C[C@H](F)C[C@H]1COc1nc(N2CCC(C)(C(N)=O)CC2)c2nc(-c3ccccc3Cl)n(-c3ccc(Cl)cc3)c2n1` [Compound 232] was tested, and the IC50 [1] was 0.934 nM and the IC50 [2] was 1.94 nM.

With `CN1C[C@H](Oc2nc(N3CCC(C)(C(N)=O)CC3)c3nc(-c4ccccc4Cl)n(-c4ccc(Cl)cc4)c3n2)C[C@H]1CO` [Compound 236] the IC50 [1] was 2.89 nM and the IC50 [2] was 22.8 nM.

For `NC(=O)C1CN(c2nc(N3CCC[C@H]3CO)nc3c2nc(-c2ccccc2Cl)n3-c2ccc(Cl)cc2)C1` [Compound 237], the IC50 [1] was 0.61 nM and the IC50 [2] was 1.93 nM.

`CCN1CCN(c2nc(OCC(C)(C)O)nc3c2nc(-c2ccccc2Cl)n3-c2ccc(Cl)cc2)CC1` [Compound 240] was tested, and the IC50 [1] was 5.79 nM and the IC50 [2] was 12.2 nM.
